Test results reported in the NIST ThermoML archive (doi:10.1021/je800747v).

Assay: xn = mol fraction of the nth substance listed
Details: 101 kPa, Liquid, Optical method

COCCOC [1,2-dimethoxyethane] + CCCCCCC
x1 = 0
Details	binary diffusion coefficient [m2/s]
276.64 K	5.24e-09
277.73 K	5.28e-09
281.59 K	5.31e-09
284.32 K	5.35e-09
287.28 K	5.4e-09
289.59 K	5.44e-09
292.83 K	5.51e-09
294.95 K	5.57e-09
296.37 K	5.63e-09
298.46 K	5.69e-09
301.29 K	5.79e-09
304.98 K	5.89e-09
306.86 K	5.98e-09
310.67 K	6.13e-09
312.41 K	6.3e-09
316.09 K	6.48e-09
319.27 K	6.62e-09
322.81 K	6.79e-09
325.36 K	6.94e-09
328.78 K	7.3e-09
332.63 K	7.59e-09

COCCOCCOC [2,5,8-trioxanonane] + CCCCCCC
x1 = 0
Details	binary diffusion coefficient [m2/s]
276.64 K	9.42e-10
277.73 K	9.48e-10
281.59 K	9.51e-10
284.32 K	9.58e-10
287.28 K	9.76e-10
289.59 K	9.87e-10
292.83 K	1e-09
294.95 K	1.02e-09
296.37 K	1.05e-09
298.46 K	1.07e-09
301.29 K	1.08e-09
304.98 K	1.12e-09
306.86 K	1.14e-09
310.67 K	1.18e-09
312.41 K	1.23e-09
316.09 K	1.26e-09
319.27 K	1.31e-09
322.81 K	1.37e-09
325.36 K	1.43e-09
328.78 K	1.48e-09
332.63 K	1.53e-09

CCCCCCC [heptane] + CCO
x2 = 0
Details	binary diffusion coefficient [m2/s]
276.64 K	7.57e-09
277.73 K	7.61e-09
281.59 K	7.64e-09
284.32 K	7.7e-09
287.28 K	7.75e-09
289.59 K	7.79e-09
292.83 K	7.84e-09
294.95 K	7.9e-09
296.37 K	7.94e-09
298.46 K	8.07e-09
301.29 K	8.19e-09
304.98 K	8.22e-09
306.86 K	8.37e-09
310.67 K	8.47e-09
312.41 K	8.58e-09
316.09 K	8.71e-09
319.27 K	8.91e-09
322.81 K	9.17e-09
325.36 K	9.22e-09
328.78 K	9.36e-09
332.63 K	9.5e-09

[Cl-].[K+] [potassium chloride] + O
Details	binary diffusion coefficient [m2/s]
298.15 K, x1 = 0	1.86e-09
